Source: patent US9040673B2, “Synthesis and identification of novel RSK-specific inhibitors” (University of Virginia Patent Foundation, priority 2009, dated 2015)

What was measured:
[1] = system: Yersinia pseudotuberculosis; format: cell-based; settings: 60 μM, 4 hours prior to infection (MOI=25)
[2] = system: pp 140, a known RSK substrate; test: pp 140 phosphorylation in HUVEC cells; format: cell-based, human; settings: 60 μM, 2 hr; with or without 500 nM phorbol dibutyrate
Procedure: HUVEC cells were seeded at a density of 3×10^5 cells per 35 mm dish and were maintained in complete growth medium. […] The cells were harvested and lysates prepared for SDS-PAGE and immunoblot analysis. The phosphorylation state of pp 140 was determined using a phosphospecific antibody generated against the phosphorylated peptide—LAS(P)TND.

VCAM = test: LPS-induced VCAM expression in HUVEC cells; format: cell-based, human; settings: 1 μg/ml LPS, 24 hours
Description: Twenty-four hours after LPS treatment, the cells were harvested with SDS lysis buffer in preparation for SDS-PAGE and immunoblot analysis. Lysates were normalized with regard to protein concentration. Equivalent loading was confirmed by use of an anti-Ran immunoblot.

LNCaP cells = test: LNCaP cell proliferation; format: cell-based, human; settings: 50 μM (FIG. 8B)
Procedure: (§1) FIGS. 8A-8D SL0101-1 inhibits the proliferation of cancer cells but not normal cells. […] Cell viability was measured at indicated time points. Proliferation assays were conducted using CellTiter-Glo Luminescent Cell Viability Assay (Promega), performed 44 hrs after treatment for FIGS. 8A &B and at indicated points for FIG. 8C. The data are expressed relative to time 0.
(§2) Cell Culture. For proliferation studies cells were seeded at 2500 to 5000 cells per well in 96 well tissue culture plates in the appropriate medium as described by American Type Culture Collection. After 24 hr, the medium was replaced with medium containing compound or vehicle as indicated. Cell viability was measured at indicated time points using CellTiter-Glo™ assay reagent (Promega) according to manufacturer's protocol. For in vivo inhibition studies, cells were seeded at 2.5×10^5 cells/well in 12 well cell culture clusters. After 24 hr, the cells were serum starved for 24 hr then incubated with compound or vehicle for 3 hr prior to a 30 min PDB stimulation. Cells were lysed as previously described (J. Biol. Chem. 273, 13317-13323 (1998)). The lysates were normalized for total protein, electrophoresed and immunoblotted. For cell imaging, Ha-Ras-transformed NIH/3T3 cells were seeded on LABTEK II chamber slides (Nalge) at a density of 1×10^4 cells/well. After 24 hr, fresh medium was added the indicated compounds or vehicle. […]

[3] = system: NIH/3T3 parental cell line; test: proliferation of parental NIH/3T3 cell line; format: cell-based
Description: The importance of MAPK to proliferation and oncogenesis is well established. However, the role that RSK plays in these processes has not been examined. […] SL0101-1 produced striking morphology changes in the transformed cells but not in the parental cell line. The vehicle control treated Ha-Ras transformed cells were elongated whereas in response to SL0101-1 the cells became much larger and flatter, appearing more like the parental cells, or like Ha-Ras transformed cells treated with U0126.
as §2, with “immunoblotted.” for “immunoblotted. For cell imaging, Ha-Ras-transformed NIH/3T3 cells were seeded on LABTEK II chamber slides (Nalge) at a density of 1×10^4 cells/well. After 24 hr, fresh medium was added the indicated compounds or vehicle.”

[4] = system: human umbilical vein endothelial cells (HUVEC); test: HUVEC wound migration assay; format: cell-based; settings: 60 μM, 1 hr prior to wounding; up to 20 hr
Description: In these experiments, HUVEC were cells were subcultured to confluence in 35-mm plates. […] Scratches were made in the monolayer of cells using sterile, disposable micropipette tips. Images were captured—2 hr, 10 hr, and 20 hr after wounding. By 10 hr after wounding, the vehicle-treated cells at the wound edge have migrated toward the wound. Gaps in the monolayer behind the wound edge are apparent. The SL0101-treated cells have recovered from the wounding, however they show little signs of polarization toward the wound and no involvement of the cells behind the wound edge. At 20 hr, the vehicle-treated cells have migrated into the wound yet the gaps are still present behind the wound edge. The cells at the wound edge in the SL0101-treated well appear to have increased in size to fill the wound rather than migrate into the wound and the monolayered cells behind the wound edge remain tightly packed unlike the vehicle-treated cells. Accordingly the data support the premise that RSK inhibitors are useful tools to stop endothelial cell migration.

Y. pseudotuberculosis = format: cell-based, Yersinia pseudotuberculosis; settings: 60 μM, liquid LB medium
MCF-10A cells = test: MCF-10A cell proliferation; format: cell-based, human; settings: 50 μM (FIG. 8A)
Procedure: The cell number was measured after 48 h of treatment. Values given are the fold proliferation as a percentage of that observed with vehicle-treated cells. Points, mean (n=2 in quadruplicate); bars=SD.
as §1
Cell Culture. For proliferation studies cells were seeded at 2500 to 5000 cells per well in 96 well tissue culture plates in the appropriate medium as described by American Type Culture Collection. After 24 hr, the medium was replaced with medium containing compound or vehicle as indicated. Cell viability was measured at indicated time points using CellTiter-Glo™ assay reagent (Promega) according to manufacturer's protocol. For in vivo inhibition studies, cells were seeded at 2.5×10^5 cells/well in 12 well cell culture clusters. After 24 hr, the cells were serum starved for 24 hr then incubated with compound or vehicle for 3 hr prior to a 30 min PDB stimulation. Cells were lysed as previously described (J. Biol. Chem. 273, 13317-13323 (1998)). The lysates were normalized for total protein, electrophoresed and immunoblotted. For cell imaging, Ha-Ras-transformed NIH/3T3 cells were seeded on LABTEK II chamber slides (Nalge) at a density of 1×10^4 cells/well. After 24 hr, fresh medium was added the indicated compounds or vehicle. Images were taken 48 hr after treatment at a magnification of 20×.

[5] = system: RSK activity (eEF2 phosphorylation); test: eEF2 phosphorylation in J774A.1 macrophages; format: cell-based, murine; settings: J774A.1 cells
Description: The translocation step in mRNA translation is mediated by eEF2. […] This phosphorylation is produced by a highly specific kinase, EF2 kinase (EF2K). RSK phosphorylates and inactivates EF2K in response to mitogenic stimulations, which leads to a decrease in eEF2 phosphorylation (Wang, et al. Embo J 20:4370-9). Under conditions in which RSK activity is low, as during serum deprivation, eEF2 is phosphorylated by the active EF2K. However, stimulation of RSK activity by mitogens such as phorbol dibutyrate (PDB) results in reduced phosphorylation of eEF2 due to inactivation of EF2K by RSK. Therefore, the phosphorylation state of eEF2 is an indicator of RSK activity. […] The levels of total eEF2 were not altered by any of the treatments.

CC(=O)O[C@@H]1[C@@H](OC(C)=O)[C@@H](O)[C@H](Oc2c(-c3ccc(O)cc3)oc3cc(O)cc(O)c3c2=O)O[C@H]1C [SL0101, kaempferol 3-O-(3″,4″-di-O-acetyl-α-L-rhamnopyranoside)]
live bacteria extracted from treated macrophages [1]: fewer live bacteria are extracted
phosphorylation of pp 140 [2]: reduced the phosphorylation of pp 140
expression of VCAM (VCAM): reduced expression of the angiogenesis marker VCAM in a dose-dependent manner
proliferation of LNCaP cells (LNCaP cells): completely inhibits the proliferation
proliferation of the parental line [3]: little effect on proliferation
migration of HUVEC into wound [4]: reduce the ability of the cells to migrate
direct effect on growth of Y. pseudotuberculosis (Y. pseudotuberculosis): does not directly affect the growth
proliferation of MCF-10A cells (MCF-10A cells): no effect on the growth
peEF2 levels [5]: increases peEF2 levels
